The values that follow are results of earlier work, collected in patent US20070289889A1, “Biomarkers For The Prediction Of Drug-In Duced Diarrhea” (NOVARTIS AG, priority 2003, published 2007).

For the series the following is noted: anticancer drugs targeted to inhibit the cell cycle, literature; cited from earlier work.

As for `CCc1c2c(nc3ccc(OC(=O)N4CCC(N5CCCCC5)CC4)cc13)-c1cc3c(c(=O)n1C2)COC(=O)[C@]3(O)CC` [CPT-11], the drug-induced diarrhoea result is “Diarrhoea has been reported”.
